# How the values were obtained:
# [1] = Bazedoxifene acetate recovery in different extraction media, XRD peak area after tablet extraction; assay type: physicochemical; settings: 1.0 mL/tablet, XRD peak at 12.8° (Form A)
# Experimental: The coatings of three of the tablets were removed. The resulting tablets were then placed in a small beaker. About 3.0 ml of extraction medium solution was added to the beaker to produce a mixture. The mixture was broken up and stirred for about 5 to about 15 minutes. The resulting mixture was filtered and washed with an additional 3.0 ml of extraction medium solution three times to produce a solid (filtrand). The recovered solid was dried at about 40° C. overnight. The dried solid was grinded and pressed into pellets for XRD measurement. This procedure can be scaled up or down for various quantities of BZA tablets. This procedure was employed for the samples found in Table 1.
# X-Ray Powder Diffraction analyses were carried out on samples prepared according to Examples 1 and 2 using a Bruker D8 Discover X-ray diffractometer with GADDS. The diffractometer power was set at 40 kV and 40 mA. The collimator diameter of the instrument was about 0.8 mm and the detector-to-sample distance was set at about 30 cm. The X-ray incident angle relative to the pellet/tablet surface was about 40 and the detection angle relative to the pellet/tablet surface was about 16±0.2°. Data were collected at about 120 minutes to about 240 minutes.
# The following table illustrates the results of experiments using the extraction methods of Example 1. The extractions were performed using different extraction media and the results were measured in terms of peak area of bazedoxifene using XRD as described in Example 3.
# [2] = as above; assay type: physicochemical; settings: XRD peak at 12.8° (Form A)
compound,measurement,setting,value
"Cc1c(-c2ccc(O)cc2)n(Cc2ccc(OCCN3CCCCCC3)cc2)c2ccc(O)cc12 [Bazedoxifene acetate, 1-[4-(2-azepan-1-yl-ethoxy)-benzyl]-2-(4-hydroxy-phenyl)-3-methyl-1H-indol-5-ol acetic acid]",Peak Area of Bazedoxifene,"[1]; Experiment 6, 0.50 M Ammonium Acetate, pH 6.20",22.7 count · degree
same,Peak Area of Bazedoxifene,"[1]; Experiment 7, 0.125 M Ammonium Acetate + 0.375 M Sodium Acetate, pH 6.85",23.1 count · degree
same,Peak Area of Bazedoxifene,"[1]; Experiment 8, 0.05 M Ammonium Acetate + 0.45 M Sodium Acetate, pH 7.18",32.0 count · degree
same,Peak Area of Bazedoxifene,"[1]; Experiment 9, 0.50 M Sodium Acetate, pH 8.34",36.2 count · degree
same,Peak Area of Bazedoxifene,"[1]; Experiment 10, 0.50 M Sodium Chloride, pH 9.20 adjusted by Sodium Hydroxide",21.8 count · degree
same,Peak Area of Bazedoxifene,"[2]; Experiment 1, Millipore Water, pH 5.9, 2.50 mL/tablet",3.3 count · degree
same,Peak Area of Bazedoxifene,"[2]; Experiment 2, Millipore Water, pH 5.9, 1.67 mL/tablet",4.9 count · degree
same,Peak Area of Bazedoxifene,"[2]; Experiment 3, Diluted Acetic Acid, pH 1.96, 2.50 mL/tablet",No Detection
same,Peak Area of Bazedoxifene,"[2]; Experiment 5, Millipore Water, pH 5.9, 0.83 mL/tablet",11.6 count · degree

# Reference: patent US20080249303A1 (WYETH, priority 2007, published 2008)
